Measured values published in patent US11746116B2, “Antibiotic resistance breakers” (KING'S COLLEGE LONDON, priority 2017, dated 2023).
Converted amounts (≈) assume the structure as drawn. Like-named read-outs stand apart in the source and are kept apart here.

Assays:
Assay in all cases: MIC, microdilution broth method
KP13368 = format: cell-based
M6 = format: cell-based
Ab17978 = format: cell-based
PA01 = format: cell-based, Pseudomonas aeruginosa; conditions: PA01; Normal (no PMBN); in µg/mL
MSSA9144 = format: cell-based, Staphylococcus aureus
EMRSA15 = format: cell-based, Staphylococcus aureus
EMRSA16 = format: cell-based, Staphylococcus aureus
VSE775 = format: cell-based, Enterococcus faecalis; parameters: MIC, VSE775: unit not given beside the values
VRE12201 = format: cell-based, Enterococcus faecalis
VRE12204 = format: cell-based, Enterococcus faecium; conditions: in µg/mL; for MIC: VRE12204
EC12923 = format: cell-based
[1] = KP13368, Normal (no PMBN), in µg/mL
[2] = Ab17978, Normal (no PMBN), in µg/mL
[3] = ESKAPE panel, Gram-negative, in µg/mL
[4] = ESKAPE panel, Gram-positive, in µg/mL

Row | Structure (SMILES) | MIC (KP13368; [1]) | MIC (M6; M6, Normal (no PMBN), in µg/mL) | MIC (Ab17978; [2]) | MIC (PA01) | MIC (MSSA9144; MSSA9144, in µg/mL) | MIC (EMRSA15; EMRSA15, in µg/mL) | MIC (EMRSA16; EMRSA16, in µg/mL) | MIC (VSE775; VSE775, in µg/mL) | MIC (VRE12201; VRE12201, in µg/mL) | MIC (VRE12204) | MIC (EC12923; EC12923, in µg/mL) | other results
1 | CCn1cc(C(=O)O)c(=O)c2cc(F)c(N3CCN(Cc4ccccc4)CC3)cc21 [ML-77-047] | 32 | 4 | 1-16 | 32 | 0.25 | 16 | 16-32 | 4 | 2 | 4 |  | 
2 | CCn1cc(C(=O)O)c(=O)c2cc(F)c(N3CCN(Cc4cccc5cccnc45)CC3)cc21 [ML-77-053] | 64 | 8 | 4 | 64 | 1 |  |  | 16 | 8 |  |  | 
3 | CCn1cc(C(=O)O)c(=O)c2cc(F)c(N3CCN(Cc4ccc(N(C)C)cc4)CC3)cc21 [ML-77-113] | 32 | 4-16 | 2 | 16-32 | 0.125-0.25 | 16-32 | >32 | 4-8 | 2 | 0.25 |  | 
4 | O=C(O)c1cn(C2CC2)c2cc(N3CCN(Cc4ccc(-c5ccccc5)cc4)CC3)c(F)cc2c1=O [ML-77-133] |  | 1 | 2 | 4 | 1 | 2 | 2 | 2 | 4 | 2 |  | 
5 | CCn1cc(C(=O)O)c(=O)c2cc(F)c(N3CCN(Cc4ccc(-n5cccc5)cc4)CC3)cc21 [ML-77-136, 7-(4-(4-(1H-pyrrol-1-yl)benzyl)piperazin-1-yl)-1-ethyl-6-fluoro oxo-1-4-dihydroquinoline-3-carboxylic acid] | 64-128 | 8-32 | 16-32 | 64-128 | 0.25-0.5 | 8 | 8-16 | 4-8 | 4-8 | 4-8 |  | 
6 | CCn1cc(C(=O)O)c(=O)c2cc(F)c(N3CCN(Cc4ccc(CO)cc4)CC3)cc21 [ML-77-148, 1-ethyl-6-fluoro-7-(4-(4-(hydroxymethyl)benzyl)piperazin-1-yl)-4-oxo-1,4-dihydroquinoline-3-carboxylic acid] | 32 | 4 | 2 | 32 | 0.5 | 32 | 32 | 4-8 | 4 | 8 |  | 
7 | Cc1cc(C)cc(CN2CCN(c3cc4c(cc3F)c(=O)c(C(=O)O)cn4C3CC3)CC2)c1 [ML-77-149] |  | 4-8 | 4 | 32 | 0.25 | 4-8 | 8 | 2-4 | 1 | 8 |  | 
8 | CCn1cc(C(=O)O)c(=O)c2cc(F)c(N3CCN(Cc4ccc(-c5csnn5)cc4)CC3)cc21 [ML-77-161, 7-(4-(4-(1,2,3-thiadiazol-4-yl)benzyl)piperazin-1-yl)-1-ethyl-6-fluoro-4-oxo-1,4-dihydroquinoline-3-carboxylic acid] | 64 | 4-8 | 2 | 64 | <0.12 | 8 | 16 | 8 | 4 | 16 |  | 
9 | Cc1cc(N2CCN(c3c(F)cc4c(=O)c(C(=O)O)cn5c4c3OC[C@@H]5C)CC2)nc(C(C)C)n1 [ML-83-011, (S)-9-fluoro-10-(4-(2-isopropyl-6-methylpyrimidin-4-yl)piperazin-1-yl)-3-methyl-7-oxo-2,3-dihydro-7H-[1,4]oxazino[2,3,4-ij]quinoline-6-carboxylic acid] | 64 | 16-64 | 16 |  | 0.25 | 16 | 16 | 1 |  | 8 | 1-8 | MIC, KP13368 (KP13368; ESKAPE panel, Gram-negative): 64 µg/mL (≈ 133 µM); MIC (KP13368; Klebsiella pneumoniae (KP13368), Gram-Negative, read-out: MIC): 64 µg/mL (≈ 133 µM); MIC, M6 (M6; [3]): 16-64; MIC (M6; Klebsiella pneumoniae (M6), Gram-Negative, read-out: MIC): 16 to 64 µg/mL (≈ 33.2 to 133 µM); MIC (Ab17978; Acinetobacter baumannii (AB17978), Gram-Negative, read-out: MIC): 16 µg/mL (≈ 33.2 µM); MIC, Ab17978 (Ab17978; [3]): 16; MIC, EC12923 (EC12923; [3]): 1-8; MIC (EC12923; Escherichia coli (EC12923), Gram-Negative, read-out: MIC): 1 to 8 µg/mL (≈ 2.08 to 16.6 µM); MIC (MSSA9144; Staphylococcus aureus (MSSA9144), Gram-Positive, read-out: MIC): 0.25 µg/mL (≈ 0.519 µM); MIC, EMRSA15 (EMRSA15; [4]): 16; MIC (EMRSA15; Staphylococcus aureus, Staphylococcus aureus (EMRSA15), Gram-Positive (Table 14), read-out: MIC): 16 µg/mL (≈ 33.2 µM); MIC, EMRSA16 (EMRSA16; [4]): 16; MIC (EMRSA16; Staphylococcus aureus (EMRSA16), Gram-Positive (Table 14), read-out: MIC): 16 µg/mL (≈ 33.2 µM); MIC, VSE775 (VSE775; ESKAPE panel, Gram-positive): 1; MIC (VSE775; Enterococcus faecalis, Enterococcus (VRE775), Gram-Positive, read-out: MIC): 1 µg/mL (≈ 2.08 µM); MIC, VRE12201 (VRE12201; [4]): 0.5-1; MIC (VRE12201; Enterococcus faecalis, Enterococcus (VRE12201), Gram-Positive, read-out: MIC): 0.5 to 1 µg/mL (≈ 1.04 to 2.08 µM); MIC, VRE12204 (VRE12204; ESKAPE panel, Gram-positive): 8
10 | C[C@H]1COc2c(N3CCN(c4ccncc4)CC3)c(F)cc3c(=O)c(C(=O)O)cn1c23 [ML-83-019] |  | 64 | 64 |  | 64 |  |  |  |  |  | 32 | 
11 | COCc1cccc(CN2CCN(c3cc4c(cc3F)c(=O)c(C(=O)O)cn4C3CC3)CC2)c1 [ML-83-036] |  | 8 | 2 |  | 0.5 |  |  | 2-4 | 2-4 | 16 | 4 | 
12 | CCn1cc(C(=O)O)c(=O)c2cc(F)c(N3CCN(Cc4cccc(COC)c4)CC3)cc21 [ML-83-037, 1-ethyl-6-fluoro-7-(4-(3-(methoxymethyl)benzyl)piperazin-1-yl)-4-oxo-1,4-dihydroquinoline-3-carboxylic acid] | 64-128 | 32 | 8 |  | 1 | 64-128 | 64 | 16 | 8 | 16 | 16 | 
13 | COCc1ccc(CN2CCN(c3cc4c(cc3F)c(=O)c(C(=O)O)cn4C3CC3)CC2)cc1 [ML-83-050] |  | 2 | 1 |  | 0.25 | 16-32 |  | 1-2 | 1 | 16 | 1 | 
14 | CCn1cc(C(=O)O)c(=O)c2cc(F)c(N3CCN(Cc4ccc(COC)cc4)CC3)cc21 [ML-83-052, 1-ethyl-6-fluoro-7-(4-(4-(methoxymethyl)benzyl)piperazin-1-yl)-4-oxo-1,4-dihydroquinoline-3-carboxylic acid] | 64 | 8-16 | 4 |  | 0.5-1 | 64-128 | 64 | 8-16 | 8 | 16 | 4 | 
